In ChEMBL document CHEMBL4813916, “Synthesis and characterization of new potent TLR7 antagonists based on analysis of the binding mode using biomolecular simulations” (Eur J Med Chem, 2021):
pIC50: −log10 of the molar value.

Target: T1, Toll-like receptor 7 (Homo sapiens, UniProt Q9NYK1)
T1 sequence (Q9NYK1 whole entry): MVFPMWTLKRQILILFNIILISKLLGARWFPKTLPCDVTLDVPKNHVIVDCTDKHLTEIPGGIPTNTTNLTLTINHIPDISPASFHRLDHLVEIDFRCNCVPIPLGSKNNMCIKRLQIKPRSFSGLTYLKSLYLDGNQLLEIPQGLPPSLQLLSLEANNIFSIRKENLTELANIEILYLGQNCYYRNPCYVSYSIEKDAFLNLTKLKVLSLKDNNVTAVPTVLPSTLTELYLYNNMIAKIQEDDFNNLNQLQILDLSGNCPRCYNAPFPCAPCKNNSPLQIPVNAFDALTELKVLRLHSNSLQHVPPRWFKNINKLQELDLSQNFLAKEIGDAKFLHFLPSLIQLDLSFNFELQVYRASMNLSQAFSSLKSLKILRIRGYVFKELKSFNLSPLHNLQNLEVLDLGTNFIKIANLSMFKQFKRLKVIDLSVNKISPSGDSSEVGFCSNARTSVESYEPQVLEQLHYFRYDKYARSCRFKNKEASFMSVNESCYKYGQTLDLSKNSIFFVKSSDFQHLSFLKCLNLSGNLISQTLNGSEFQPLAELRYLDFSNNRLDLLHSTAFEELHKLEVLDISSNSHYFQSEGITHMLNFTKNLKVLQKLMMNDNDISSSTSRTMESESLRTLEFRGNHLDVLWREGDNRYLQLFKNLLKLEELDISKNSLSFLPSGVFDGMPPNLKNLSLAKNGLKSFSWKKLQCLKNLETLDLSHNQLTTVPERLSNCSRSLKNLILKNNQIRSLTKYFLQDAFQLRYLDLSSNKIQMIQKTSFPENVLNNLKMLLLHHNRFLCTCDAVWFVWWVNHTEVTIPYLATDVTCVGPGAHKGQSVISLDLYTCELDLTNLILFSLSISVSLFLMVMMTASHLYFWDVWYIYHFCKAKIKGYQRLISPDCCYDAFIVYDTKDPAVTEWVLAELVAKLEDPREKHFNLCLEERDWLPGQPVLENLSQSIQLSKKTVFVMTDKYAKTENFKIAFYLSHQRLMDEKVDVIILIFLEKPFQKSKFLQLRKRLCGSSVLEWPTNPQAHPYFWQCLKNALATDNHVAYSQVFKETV
Experiment: Antagonist activity at TLR7 (unknown origin)

| SMILES | pIC50 |
| --- | --- |
| CCCNc1nc2c(c(=O)n(C)c(=O)n2C)n1CC(C)C | 3.18 |
| COC(=O)[C@H]1O[C@H](n2cnc3c(N)ncnc32)[C@H](O)[C@@H]1O | < 3.00 |
| Nc1ncnc2c1ncn2CCO | 3.16 |

Other lines, results leading:

| pIC50 | SMILES |
| --- | --- |
| 3.57 | Nc1ncnc2c1nc(Br)n2C[C@@H](O)CO |
| 3.60 | CCSc1nc2c(N)ncnc2[nH]1 |
| 3.73 | CCCCSc1nnc2n(N)c(=O)c3ccccc3n12 |
| 3.96 | CCCSc1nc2c(O)nnc(O)c2n1Cc1ccccc1 |
| 4.18 | NCc1ccc(C(=O)Nc2cccc(-c3nc4cc(OCCCN5CCCC5)ccc4o3)c2)cc1 |
| 4.43 | CCN(CC)CCn1cnc2c(=O)oc3ccccc3c21 |
| 4.64 | CC(C)Cn1cnc2c(=O)oc3ccccc3c21 |
| 5.00 | COc1cc2c(N3CCN(C(=O)c4ccccc4)CC3)nc(N(C)C)nc2cc1OC1CCCC1 |
| 5.00 | COc1cc2c(N3CCN(C(=O)OC(C)(C)C)CC3)nc(N3CCN(C)CC3)nc2cc1OCc1ccccc1 |

Target: T1, Toll-like receptor 7
Experiment: Antagonist activity at human TLR7 expressed in HEK-blue-HTLR7 cells assessed as inhibition of CL264-induced NFkappaB activation measured after 24 hrs by secreted alkaline phosphatase reporter assay
Type: cell-based

| pIC50 | SMILES |
| --- | --- |
| 4.56 | COc1ccc(CNc2nc(N3CCNCC3)c3cc(OC)c(OCc4ccccc4)cc3n2)cc1 |
| 4.70 | COc1ccc(CNc2nc(N3CCN(C)CC3)c3cc(OC)c(OCc4ccccc4)cc3n2)cc1 |
| < 4.30 | COc1cc2c(N(C)C)nc(NCCCN3CCN(C)CC3)nc2cc1OCCCN1CCCC1 |
| 5.74 | COc1ccc(CNc2nc(N3CCN(C4CCCC4)CC3)c3cc(OC)c(OCCCN4CCCC4)cc3n2)cc1 |
